Like-named read-outs stand apart in the source and are kept apart here.
Experiments:
[1] = target: N-type calcium channel (α1B (Cav2.2), β3 and α2δ subunits) in stable HEK cell line (Homo sapiens (Human), UniProt Q00975); assay: Functional assay (FDSS calcium mobilization): antagonism of N-type calcium channel; type: cell-based
Protocol: A stable cell line (HEK parent) co-expressing the α1B (Cav2.2), β3 and α2δ subunits of the N-type calcium channel subunits was used. These cells were routinely grown as monolayers in low glucose-containing Dulbecco's Modified Eagle Medium supplemented with 10% FBS, 2 mM L-glutamine, 100 I.U./mL penicillin, 100 μg/mL streptomycin, 400 μg/mL G418 and 200 μg/mL Zeocin (split ratio=1:5). Cells were maintained in 5% CO2 at 37° C. Compounds of Formula (I) were prepared as 10 mM stocks in DMSO from neat compound, if available. Otherwise, the 5 or 10 mM DMSO stock solutions provided in-house were used.
Calcium mobilization responses to KCl depolarization were evaluated by measuring the intensity of calcium-mediated fluorescent signal in the presence of BD Calcium Assay Dye (BD Biosciences, Franklin Lakes, N.J., U.S.A.), utilizing a Functional Drug Screening System (FDSS) by Hamamatsu Corporation (Bridgewater, N.J. U.S.A.).
Twenty-four hr prior to assay, cells were seeded in clear-base poly-D-lysine-coated 384-well plates (BD Biosciences) at a density of 5,000 cells per well in culture medium and grown overnight in 5% CO2 at 37° C. On the day of assay, growth media were removed, and cells were loaded with BD calcium assay dye (BD Biosciences) for 35 min at 37° C. under 5% CO2 and then for 25 min at room temp. Utilizing the FDSS, cells were exposed to representative compounds of Formula (I) at varying concentrations, and intracellular calcium was measured for 5 min prior to the addition of 50 mM KCl for an additional 3 min of measurement.
IC50 values for representative compounds of Formula (I) were determined from six-point concentration-response experiments and represent the concentration of said compound required to inhibit 50% of the maximal response. Maximal fluorescence intensity (FI) achieved upon addition of 50 mM KCl was exported from the FDSS software and further analyzed using GraphPad Prism 3.02 (Graph Pad Software Inc., San Diego, Calif., U.S.A.). Data were normalized to the maximum average counts from quadruplicate wells for each condition in the presence of 50 mM KCl and to the minimum average counts in the presence of buffer. Theoretical curves were generated using nonlinear regression curve-fitting analysis of either sigmoidal concentration-response or sigmoidal concentration-response (variable slope), and the IC50 values with the best-fit curve determined by GraphPad Prism were reported.

N-type calcium channel = N-type calcium channel (Homo sapiens (Human), UniProt Q00975); assay: Automated electrophysiology assay (QPatch-HT whole-cell patch clamp); type: cell-based
Protocol: Cells were grown in T175 flasks to 50%-90% confluence. At the time of use, cells were enzymatically treated with Detachin (Genlantis, San Diego, Calif. USA), centrifuged, rinsed, and resuspended in 293 SFM II media (Life Technologies, Grand Island, N.Y. U.S.A.) supplemented with 25 mM HEPES (Sigma-Aldrich, St. Louis, Mo. U.S.A.) to a concentration of 2-3×10^6 cells/mL. Cells were added to the automated cell preparation station on the QPatch-HT (Sophion Biosciences, North Brunswick, N.J. U.S.A.), and following a 10- to30-min recovery period with gentle stirring, the assay protocol was initiated. During the automated cell preparation, cells were collected, centrifuged and resuspended in an extracellular (EC) solution containing 132 mM NaCl, 1.8 mM CaCl2, 5.4 mM KCl, 0.8 mM MgCl2, 10 mM glucose, and 10 mM HEPES (pH=7.4), adjusted with sucrose to approximately 315 m0sm. The QPlate was primed with an intracellular solution containing 135 mM CsCl, 10 mM EGTA, 4 MgATP, 0.3 NaGTP, and 20 mM HEPES (pH=7.2), adjusted to approximately 290 m0sm with deionized water and the EC solution. Cells were added to the prepared QPlate wells by robotic pipettes of the QPatch-HT.
For cells determined to be in stable whole-cell patch clamp, the EC solution was replaced with a barium (Ba)/triethylammonium (TEA) solution containing 140 mM TEA-Cl, 10 mM BaCl2, 0.8 mM MgCl2, 10 mM glucose and 10 mM HEPES (pH=7.4). High (40 mM) BaCl2 concentrations were made with adjustments to TEA-Cl (90 mM) to maintain the osmolarity. From a resting potential of −80 mV, a train of depolarizing pulses (15 pulses at 5 Hz, +20 mV) was delivered to the cell once every 30 sec for […], and the resulting currents were measured during a control period (no compound). This protocol was repeated for each subsequent addition of control buffer with or without compound (three periods total, each with four trains). The current generated in the 1st and 15th pulses of the last train of each period in the presence of each drug concentration was normalized to the current generated during the control period at the respective pulses (representing low- and high-frequency stimulation, respectively). Data from both the second and third drug application periods were analyzed for each cell. A final addition of Ba/TEA solution containing 60-100 μM CdCl2 was made to block all N-type current and to “zero” the currents for each cell. All buffer/compound additions were made using a “spitting” feature of the QPatch-HT, which added three repetitions of 5 μL solution at the beginning of each recording period.
To examine closed-state inactivation, cells were subjected to a channel-activating 50-msec depolarizing step pulse from −80 to +10 mV, followed by a 5-sec nonactivating step to voltages ranging from −130 to −60 mV in 10 mV increments and then a 50-ms step from −80 to +10 mV to assess the remaining current. Currents from the activating voltage pulse were normalized to the peak value of the test pulse following the −130 mV step and fit to a Boltzman equation to obtain the V1/2. Roscovitine (Sigma-Aldrich) was prepared as a 100 mM stock in dimethyl sulfoxide and diluted to the indicated working concentrations. […]. Compounds of Formula (I) were diluted first into dimethyl sulfoxide and then into 10% pluronic F-127 in water (Life Technologies), sonicated for 1 min and diluted into EC buffer. Vehicle controls were run in parallel in all experiments.
Unless otherwise indicated, statistics for comparing among electrophysiological results utilized a one-way analysis of variance with Fisher's least squares determination test for pair-wise comparison.

[2] = test system: CFA-induced thermal hyperalgesia; assay: Complete Freund's Adjuvant (CFA)-induced hyperalgesia, radiant heat; type: in vivo, Sprague-Dawley rats; settings: FIG. 1, numbers not given

N-type calcium channel (α1B (Cav2.2), β3 and α2δ subunits) in stable HEK cell line, sequence (Q00975 whole entry): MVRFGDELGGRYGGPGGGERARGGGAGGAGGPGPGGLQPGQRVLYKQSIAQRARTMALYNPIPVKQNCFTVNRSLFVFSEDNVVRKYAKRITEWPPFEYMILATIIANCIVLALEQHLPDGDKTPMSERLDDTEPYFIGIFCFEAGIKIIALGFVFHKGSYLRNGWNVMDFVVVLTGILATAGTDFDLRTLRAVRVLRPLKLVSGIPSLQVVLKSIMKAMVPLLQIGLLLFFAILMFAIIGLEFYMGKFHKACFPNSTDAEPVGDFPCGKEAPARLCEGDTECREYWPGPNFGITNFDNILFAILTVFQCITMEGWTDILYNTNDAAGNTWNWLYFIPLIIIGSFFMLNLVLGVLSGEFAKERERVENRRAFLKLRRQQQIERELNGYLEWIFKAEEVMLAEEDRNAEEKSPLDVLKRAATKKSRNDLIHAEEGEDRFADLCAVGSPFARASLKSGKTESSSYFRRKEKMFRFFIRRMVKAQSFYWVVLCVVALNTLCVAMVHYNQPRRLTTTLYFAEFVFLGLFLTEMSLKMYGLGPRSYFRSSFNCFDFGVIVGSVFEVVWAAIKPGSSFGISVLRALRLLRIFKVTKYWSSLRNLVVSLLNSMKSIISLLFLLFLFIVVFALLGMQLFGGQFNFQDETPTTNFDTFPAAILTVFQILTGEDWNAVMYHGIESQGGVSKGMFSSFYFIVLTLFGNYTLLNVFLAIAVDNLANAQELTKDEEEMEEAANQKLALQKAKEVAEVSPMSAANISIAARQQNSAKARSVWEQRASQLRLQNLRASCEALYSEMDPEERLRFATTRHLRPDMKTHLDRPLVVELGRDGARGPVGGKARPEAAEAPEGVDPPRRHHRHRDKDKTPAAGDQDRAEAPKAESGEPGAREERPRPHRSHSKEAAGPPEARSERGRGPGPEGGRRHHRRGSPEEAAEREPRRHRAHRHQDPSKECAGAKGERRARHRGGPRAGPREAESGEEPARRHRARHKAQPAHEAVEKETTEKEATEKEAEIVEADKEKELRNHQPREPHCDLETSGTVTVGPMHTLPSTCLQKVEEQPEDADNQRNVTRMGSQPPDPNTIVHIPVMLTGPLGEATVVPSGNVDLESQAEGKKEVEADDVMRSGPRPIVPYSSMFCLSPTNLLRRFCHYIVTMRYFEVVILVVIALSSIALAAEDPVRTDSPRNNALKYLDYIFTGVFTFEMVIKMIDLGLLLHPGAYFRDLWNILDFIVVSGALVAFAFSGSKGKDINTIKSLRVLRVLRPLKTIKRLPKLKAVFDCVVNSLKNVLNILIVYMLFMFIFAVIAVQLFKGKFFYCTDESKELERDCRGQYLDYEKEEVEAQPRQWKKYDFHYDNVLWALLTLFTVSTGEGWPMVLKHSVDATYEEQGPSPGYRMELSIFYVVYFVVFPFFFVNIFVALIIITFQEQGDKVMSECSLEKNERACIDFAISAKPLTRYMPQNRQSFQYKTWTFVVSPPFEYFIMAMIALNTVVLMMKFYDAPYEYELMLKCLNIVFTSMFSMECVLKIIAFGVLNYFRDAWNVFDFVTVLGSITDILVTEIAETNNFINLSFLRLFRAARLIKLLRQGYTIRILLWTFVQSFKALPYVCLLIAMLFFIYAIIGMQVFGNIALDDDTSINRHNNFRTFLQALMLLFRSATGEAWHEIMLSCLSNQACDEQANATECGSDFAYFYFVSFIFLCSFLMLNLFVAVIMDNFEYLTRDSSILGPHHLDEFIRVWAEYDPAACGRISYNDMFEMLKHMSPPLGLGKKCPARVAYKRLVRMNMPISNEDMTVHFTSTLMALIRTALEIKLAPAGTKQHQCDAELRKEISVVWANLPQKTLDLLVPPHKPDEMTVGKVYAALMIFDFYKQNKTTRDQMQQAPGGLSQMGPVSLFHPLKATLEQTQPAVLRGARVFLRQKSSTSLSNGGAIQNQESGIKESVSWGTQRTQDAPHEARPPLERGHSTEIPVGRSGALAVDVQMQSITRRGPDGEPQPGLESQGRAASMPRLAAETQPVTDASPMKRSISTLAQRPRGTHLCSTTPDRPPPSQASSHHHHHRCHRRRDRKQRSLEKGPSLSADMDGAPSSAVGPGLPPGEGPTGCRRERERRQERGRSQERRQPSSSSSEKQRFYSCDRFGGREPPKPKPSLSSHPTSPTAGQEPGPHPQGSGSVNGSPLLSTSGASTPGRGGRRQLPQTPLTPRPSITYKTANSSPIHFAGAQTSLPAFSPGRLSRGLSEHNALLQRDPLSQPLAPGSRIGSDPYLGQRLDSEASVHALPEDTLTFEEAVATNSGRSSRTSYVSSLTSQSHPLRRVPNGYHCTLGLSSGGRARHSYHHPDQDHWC
N-type calcium channel (α1B (Cav2.2), β3 and α2δ subunits) in stable HEK cell line, sequence (P54284 whole entry partner): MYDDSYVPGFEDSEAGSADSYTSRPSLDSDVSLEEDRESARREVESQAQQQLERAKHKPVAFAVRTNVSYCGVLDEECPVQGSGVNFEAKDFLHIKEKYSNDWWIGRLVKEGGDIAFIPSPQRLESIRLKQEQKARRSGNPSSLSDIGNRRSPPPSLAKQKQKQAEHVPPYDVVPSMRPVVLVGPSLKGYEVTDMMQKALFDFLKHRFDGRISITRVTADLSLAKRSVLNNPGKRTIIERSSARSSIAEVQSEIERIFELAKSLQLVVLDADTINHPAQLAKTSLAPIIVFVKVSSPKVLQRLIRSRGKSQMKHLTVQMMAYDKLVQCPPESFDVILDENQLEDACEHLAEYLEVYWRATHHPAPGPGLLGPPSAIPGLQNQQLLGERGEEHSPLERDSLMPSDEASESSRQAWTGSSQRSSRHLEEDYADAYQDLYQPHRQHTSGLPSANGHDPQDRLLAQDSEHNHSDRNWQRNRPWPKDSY
N-type calcium channel (α1B (Cav2.2), β3 and α2δ subunits) in stable HEK cell line, sequence (P54289 25-1103 partner): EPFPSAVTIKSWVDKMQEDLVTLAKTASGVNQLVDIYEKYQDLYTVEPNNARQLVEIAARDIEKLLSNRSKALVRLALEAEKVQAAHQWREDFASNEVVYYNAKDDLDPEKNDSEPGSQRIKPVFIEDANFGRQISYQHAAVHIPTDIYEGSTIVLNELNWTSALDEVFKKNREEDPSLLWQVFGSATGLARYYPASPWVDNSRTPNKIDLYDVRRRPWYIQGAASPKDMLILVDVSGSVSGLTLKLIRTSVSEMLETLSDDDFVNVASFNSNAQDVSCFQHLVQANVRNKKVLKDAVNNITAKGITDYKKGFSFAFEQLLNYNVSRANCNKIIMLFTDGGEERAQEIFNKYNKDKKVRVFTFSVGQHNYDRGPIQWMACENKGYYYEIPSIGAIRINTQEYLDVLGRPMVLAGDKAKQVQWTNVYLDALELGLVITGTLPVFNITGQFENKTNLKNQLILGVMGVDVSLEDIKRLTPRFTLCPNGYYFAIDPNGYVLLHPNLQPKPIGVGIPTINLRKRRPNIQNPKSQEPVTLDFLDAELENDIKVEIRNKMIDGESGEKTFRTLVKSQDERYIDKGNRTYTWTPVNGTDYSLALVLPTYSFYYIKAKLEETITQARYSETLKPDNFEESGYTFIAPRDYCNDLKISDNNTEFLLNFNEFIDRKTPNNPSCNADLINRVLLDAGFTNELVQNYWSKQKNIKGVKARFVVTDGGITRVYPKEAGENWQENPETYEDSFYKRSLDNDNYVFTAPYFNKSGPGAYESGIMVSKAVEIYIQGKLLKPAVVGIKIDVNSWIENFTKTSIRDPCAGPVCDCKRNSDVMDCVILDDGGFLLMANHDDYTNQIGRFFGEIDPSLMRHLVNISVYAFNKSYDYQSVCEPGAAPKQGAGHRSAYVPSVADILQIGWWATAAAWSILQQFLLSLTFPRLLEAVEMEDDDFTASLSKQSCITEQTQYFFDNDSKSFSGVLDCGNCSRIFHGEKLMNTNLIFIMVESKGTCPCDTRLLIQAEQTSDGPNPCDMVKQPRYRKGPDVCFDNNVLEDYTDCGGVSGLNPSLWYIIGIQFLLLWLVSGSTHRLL
N-type calcium channel, sequence (Q00975 whole entry): as the sequence (Q00975 whole entry) above
N-type calcium channel, sequence (P54284 whole entry partner): as the sequence (P54284 whole entry partner) above
N-type calcium channel, sequence (P54289 25-1103 partner): as the sequence (P54289 25-1103 partner) above

## COc1ccccc1-n1nc(OC2CC(C)(C)OC(C)(C)C2)cc1-c1ccc(Cl)cc1 [Compound 23, 5-(4-chlorophenyl)-1-(2-methoxyphenyl)-3-((2,2,6,6-tetramethyltetrahydro-2H-pyran-4-yl)oxy)-1H-pyrazole]
[1]; HEK293, FDSS, 0.33 μM compound
  inhibition at 0.33 µM: 96%
[1]; KCl (50 mM) depolarization, six-point concentration-response
  IC50: 7.6 nM
N-type calcium channel; high-frequency stimulation (15th pulse of train, 5 Hz), read-out: QPatch at High Frequency % Inhibition at 0.1 μM
  inhibition at 0.1 µM: 37%
N-type calcium channel; low-frequency stimulation (1st pulse of train), read-out: QPatch at Low Frequency % Inhibition at 0.1 μM
  inhibition at 0.1 µM: 11%
[2]
  effect in rat CFA radiant heat model of inflammatory pain: antihyperalgesic effect

Source: patent US9434693B2, “Substituted pyrazoles as N-type calcium channel blockers” (Janssen Pharmaceutica NV, priority 2012, dated 2016)
